From publication PMC6946680, “Modulation of brain cation-Cl^− cotransport via the SPAK kinase inhibitor ZT-1a” (Nature Communications, 2020)
Values joined by “and” are separate entries in the source; they are usually repeats but may differ in a detail not shown here. Identical values can stand only once.

Experiments:
[1] = test system: NKCC1 pThr203/207/212; assay: Choroid plexus NKCC1 immunoblot in rat IVH model; format: in vivo
[2] = test system: BRSK1; assay: Kinase profiling panel; format: biochemical
Experimental: (§1) Supplementary Table 2. ZT-1a kinase profiling data6.
(§2) ZT-1a was tested at 10 and 1 µM against a panel of 140 recombinant kinases in an enzymatic
(§3) activity-based assay performed by the International Centre for Kinase Profiling in the MRC
(§4) Protein Phosphorylation and Ubiquitylation Unit. Values represent % residual kinase activity

[3] = test system: BRSK2; assay: Kinase profiling panel; format: biochemical
Experimental: as §1, §2, §3, §4

[4] = test system: BTK; assay: Kinase profiling panel; format: biochemical
Experimental: as §1, §2, §3, §4

[5] = test system: CK1δ; assay: Kinase profiling panel; format: biochemical
Experimental: as §1, §2, §3, §4

[6] = test system: DDR2; assay: Kinase profiling panel; format: biochemical
Experimental: as §1, §2, §3, §4

[7] = test system: DYRK1A; assay: Kinase profiling panel; format: biochemical
Experimental: as §1, §2, §3, §4

[8] = test system: DYRK3; assay: Kinase profiling panel; format: biochemical
Experimental: as §1, §2, §3, §4

[9] = test system: EPH-A2; assay: Kinase profiling panel; format: biochemical
Experimental: as §1, §2, §3, §4

[10] = test system: EPH-A4; assay: Kinase profiling panel; format: biochemical
Experimental: as §1, §2, §3, §4

[11] = test system: EPH-B1; assay: Kinase profiling panel; format: biochemical
Experimental: as §1, §2, §3, §4

[12] = test system: EPH-B2; assay: Kinase profiling panel; format: biochemical
Experimental: as §1, §2, §3, §4

[13] = test system: ERK8; assay: Kinase profiling panel; format: biochemical
Experimental: as §1, §2, §3, §4

[14] = test system: IKKb; assay: Kinase profiling panel; format: biochemical
Experimental: as §1, §2, §3, §4

[15] = test system: IRR; assay: Kinase profiling panel; format: biochemical
Experimental: as §1, §2, §3, §4

[16] = test system: IR; assay: Kinase profiling panel; format: biochemical
Experimental: as §1, §2, §3, §4

[17] = test system: MARK1; assay: Kinase profiling panel; format: biochemical
Experimental: as §1, §2, §3, §4

[18] = test system: MARK4; assay: Kinase profiling panel; format: biochemical
Experimental: as §1, §2, §3, §4

[19] = test system: MEKK1; assay: Kinase profiling panel; format: biochemical
Experimental: as §1, §2, §3, §4

[20] = test system: MLK1; assay: Kinase profiling panel; format: biochemical
Experimental: as §1, §2, §3, §4

[21] = test system: NUAK1; assay: Kinase profiling panel; format: biochemical
Experimental: as §1, §2, §3, §4

[22] = test system: PAK6; assay: Kinase profiling panel; format: biochemical
Experimental: as §1, §2, §3, §4

[23] = test system: PIM1; assay: Kinase profiling panel; format: biochemical
Experimental: as §1, §2, §3, §4

[24] = test system: PIM3; assay: Kinase profiling panel; format: biochemical
Experimental: as §1, §2, §3, §4

[25] = test system: PKA; assay: Kinase profiling panel; format: biochemical
Experimental: as §1, §2, §3, §4

[26] = test system: PKBb; assay: Kinase profiling panel; format: biochemical
Experimental: as §1, §2, §3, §4

[27] = test system: PKCa; assay: Kinase profiling panel; format: biochemical
Experimental: as §1, §2, §3, §4

[28] = test system: PKCz; assay: Kinase profiling panel; format: biochemical
Experimental: as §1, §2, §3, §4

[29] = test system: PRAK; assay: Kinase profiling panel; format: biochemical
Experimental: as §1, §2, §3, §4

[30] = test system: PRK2; assay: Kinase profiling panel; format: biochemical
Experimental: as §1, §2, §3, §4

[31] = test system: ROCK 2; assay: Kinase profiling panel; format: biochemical
Experimental: as §1, §2, §3, §4

[32] = test system: SRPK1; assay: Kinase profiling panel; format: biochemical
Experimental: as §1, §2, §3, §4

[33] = test system: STK33; assay: Kinase profiling panel; format: biochemical
Experimental: as §1, §2, §3, §4

[34] = test system: SYK; assay: Kinase profiling panel; format: biochemical
Experimental: as §1, §2, §3, §4

[35] = test system: SmMLCK; assay: Kinase profiling panel; format: biochemical
Experimental: as §1, §2, §3, §4

[36] = test system: TAO1; assay: Kinase profiling panel; format: biochemical
Experimental: as §1, §2, §3, §4

[37] = test system: TrkA; assay: Kinase profiling panel; format: biochemical
Experimental: as §1, §2, §3, §4

[38] = test system: ULK1; assay: Kinase profiling panel; format: biochemical
Experimental: as §1, §2, §3, §4

[39] = test system: ZAP70; assay: Kinase profiling panel; format: biochemical
Experimental: as §1, §2, §3, §4

[40] = test system: p38b MAPK; assay: Kinase profiling panel; format: biochemical
Experimental: as §1, §2, §3, §4

[41] = test system: pSPAK (pSer373)/pOSR1 (pSer325); assay: Immunoblot of pSPAK/pOSR1 in ischemic mouse brain membrane fractions; settings: for SPAK / Na-K pumb / pSer373 / SPAK: Fig 8, individual samples; for pSPAK pOSR1/Na K pump (fold veh-CL): Membrane, single samples

For `Cc1cc(C(C#N)c2ccc(Cl)cc2)c(Cl)cc1NC(=O)c1cc(Cl)ccc1O` (stereo not shown) [ZT-1a, 5-chloro-N-(5-chloro-4-((4-chlorophenyl)(cyano)methyl)-2-methylphenyl)-2-hydroxybenzamide], the “NKCC1 pThr203/207/212 / Actin” value ([1]; rat CPe 48 h post IVH + 1a, replicates) was 1.03 and 0.7 and 0.5 and 0.9 and 0.81 and 0.55, the “reduction of IVH-induced expression of pNKCC1 in CPe” value ([1]; rat, ICV ZT-1a, 48 h post IVH, n = 3) was 69 ± 4.3% and the “% residual kinase activity” value ([2]; 1 µM) was 108±14%. The “% residual kinase activity” value ([2]; 10 µM) was 88±22%, the “% residual kinase activity” value ([3]; 1 µM) was 115±14% and the “% residual kinase activity” value ([3]; 10 µM) was 104±0%. For the same compound, the “% residual kinase activity” value ([4]; 1 µM) was 113±1%, the “% residual kinase activity” value ([4]; 10 µM) was 73±2% and the “% residual kinase activity” value ([5]; 1 µM) was 116±5%. The “% residual kinase activity” value ([5]; 10 µM) was 114±9%, the “% residual kinase activity” value ([6]; 1 µM) was 111±20% and the “% residual kinase activity” value ([6]; 10 µM) was 99±8%. The “% residual kinase activity” value ([7]; 1 µM) was 119±7%, the “% residual kinase activity” value ([7]; 10 µM) was 103±1% and the “% residual kinase activity” value ([8]; 1 µM) was 113±6%. For the same compound, the “% residual kinase activity” value ([8]; 10 µM) was 56±15%, the “% residual kinase activity” value ([9]; 1 µM) was 89±23% and the “% residual kinase activity” value ([9]; 10 µM) was 78±11%. The “% residual kinase activity” value ([10]; 1 µM) was 59±33%, the “% residual kinase activity” value ([10]; 10 µM) was 90±11% and the “% residual kinase activity” value ([11]; 1 µM) was 77±15%. For the same compound, the “% residual kinase activity” value ([11]; 10 µM) was 80±19%, the “% residual kinase activity” value ([12]; 1 µM) was 77±2% and the “% residual kinase activity” value ([12]; 10 µM) was 81±8%. The “% residual kinase activity” value ([13]; 1 µM) was 104±11%, the “% residual kinase activity” value ([13]; 10 µM) was 63±3% and the “% residual kinase activity” value ([14]; 1 µM) was 101±0%. For the same compound, the “% residual kinase activity” value ([14]; 10 µM) was 78±3%, the “% residual kinase activity” value ([15]; 1 µM) was 105±5% and the “% residual kinase activity” value ([15]; 10 µM) was 95±4%. For the same compound, the “% residual kinase activity” value ([16]; 1 µM) was 105±2%, the “% residual kinase activity” value ([16]; 10 µM) was 86±13% and the “% residual kinase activity” value ([17]; 1 µM) was 104±16%. The “% residual kinase activity” value ([17]; 10 µM) was 91±5%, the “% residual kinase activity” value ([18]; 1 µM) was 68±8% and the “% residual kinase activity” value ([18]; 10 µM) was 59±9%. The “% residual kinase activity” value ([19]; 1 µM) was 109±1%, the “% residual kinase activity” value ([19]; 10 µM) was 93±16% and the “% residual kinase activity” value ([20]; 1 µM) was 94±4%. The “% residual kinase activity” value ([20]; 10 µM) was 81±21%, the “% residual kinase activity” value ([21]; 1 µM) was 52±7% and the “% residual kinase activity” value ([21]; 10 µM) was 61±16%. The “% residual kinase activity” value ([22]; 1 µM) was 69±2%, the “% residual kinase activity” value ([22]; 10 µM) was 75±4% and the “% residual kinase activity” value ([23]; 1 µM) was 108±19%. For the same compound, the “% residual kinase activity” value ([23]; 10 µM) was 101±8%, the “% residual kinase activity” value ([24]; 1 µM) was 115±12% and the “% residual kinase activity” value ([24]; 10 µM) was 99±2%. The “% residual kinase activity” value ([25]; 1 µM) was 80±11%, the “% residual kinase activity” value ([25]; 10 µM) was 50±2% and the “% residual kinase activity” value ([26]; 1 µM) was 76±14%. For the same compound, the “% residual kinase activity” value ([26]; 10 µM) was 51±13%, the “% residual kinase activity” value ([27]; 1 µM) was 97±4% and the “% residual kinase activity” value ([27]; 10 µM) was 83±2%. For the same compound, the “% residual kinase activity” value ([28]; 1 µM) was 80±11%, the “% residual kinase activity” value ([28]; 10 µM) was 122±28% and the “% residual kinase activity” value ([29]; 1 µM) was 78±13%. For the same compound, the “% residual kinase activity” value ([29]; 10 µM) was 41±7%, the “% residual kinase activity” value ([30]; 1 µM) was 118±4% and the “% residual kinase activity” value ([30]; 10 µM) was 120±7%. For the same compound, the “% residual kinase activity” value ([31]; 1 µM) was 109±6%, the “% residual kinase activity” value ([31]; 10 µM) was 101±10% and the “% residual kinase activity” value ([32]; 1 µM) was 104±5%. The “% residual kinase activity” value ([32]; 10 µM) was 73±20%, the “% residual kinase activity” value ([33]; 1 µM) was 114±7% and the “% residual kinase activity” value ([33]; 10 µM) was 100±5%. The “% residual kinase activity” value ([34]; 1 µM) was 93±12%, the “% residual kinase activity” value ([34]; 10 µM) was 93±1% and the “% residual kinase activity” value ([35]; 1 µM) was 99±3%. The “% residual kinase activity” value ([35]; 10 µM) was 98±9%, the “% residual kinase activity” value ([36]; 1 µM) was 66±2% and the “% residual kinase activity” value ([36]; 10 µM) was 104±2%. For the same compound, the “% residual kinase activity” value ([37]; 1 µM) was 108±9%, the “% residual kinase activity” value ([37]; 10 µM) was 91±7% and the “% residual kinase activity” value ([38]; 1 µM) was 87±10%. For the same compound, the “% residual kinase activity” value ([38]; 10 µM) was 89±13%, the “% residual kinase activity” value ([39]; 1 µM) was 120±1% and the “% residual kinase activity” value ([39]; 10 µM) was 97±9%. The “% residual kinase activity” value ([40]; 1 µM) was 124±1%, the “% residual kinase activity” value ([40]; 10 µM) was 124±0% and the “SPAK / Na-K pumb” value ([41]; CL hemisphere) was 0.981 and 0.854 and 0.987 and 1.037 and 0.972 and 0.893. The “pSer373 / SPAK” value ([41]; CL hemisphere) was 1.177 and 1.25 and 1.197 and 1.217 and 1.153 and 1.09, the “SPAK / Na-K pumb” value ([41]; IL hemisphere) was 0.919 and 0.978 and 0.855 and 0.931 and 0.95 and 0.819 and the “pSer373 / SPAK” value ([41]; IL hemisphere) was 0.773 and 0.739 and 0.598 and 0.674 and 0.62 and 0.668. For the same compound, the “pSPAK pOSR1/Na K pump (fold veh-CL)” value ([41]; CL) was 1.23 fold veh-CL and 0.84 fold veh-CL and 1.17 fold veh-CL and 1.58 fold veh-CL and 1.64 fold veh-CL, the “pSPAK pOSR1/Na K pump (fold veh-CL)” value ([41]; IL) was 1.24 fold veh-CL and 0.94 fold veh-CL and 0.88 fold veh-CL and 1.08 fold veh-CL and 0.87 fold veh-CL and the “reduction of ischemia-induced elevation of pSPAK” value ([41]; compared with vehicle-control mice) was 55–65%. For the same compound, the “ischemia-induced increase of pSPAK/pOSR1” value ([41]; post-stroke ZT-1a 5 mg/kg, 24 h reperfusion) was “prevented”.
